Measurements from PMC9585897 (Peptides, 2022).
“Also recorded” adds a separate entry of the source. Non-standard residues stand in square brackets, D forms with d. Residues, ends and D or L forms follow the SMILES beside them. Ahx = NCCCCCC(=O)O

Key:
[1] = system: rCoV2-RBD (His-Spike S1 Protein, 13–685 aa); format: binding, SARS-CoV-2
[2] = biological target: SARS-CoV-2 Spike-ACE2 interaction (Severe acute respiratory syndrome coronavirus 2, UniProt P0DTC2); assay: ELISA, SARS-CoV-2 Spike-ACE2 Interaction Inhibitor Screening Assay Kit; format: biochemical

Row | Compound | Binding of CoV2-RBD, sliding window array (in words) [1] | IC50 [2] | Competition with ACE2 for binding to CoV2-RBD (in words) ([2]; approximately 13.48 μM of ACE2, ELISA) | Inhibition of the Spike-ACE2 interaction (in words) ([2]; competitive ELISA, BP19 1 to 128 μM in triplicates)
1 | SLVAVTAAQSTIEEQAKTFLDKFN [9 ^N] | bound the CoV2-RBD the strongest; also recorded: bound the CoV2-RBD with the greatest intensity | – | – | –
2 | CC[C@H](C)[C@H](NC(=O)[C@H](Cc1ccccc1)NC(=O)[C@H](CCCCN)NC(=O)[C@H](CC(=O)O)NC(=O)[C@H](CC(C)C)NC(=O)[C@H](Cc1ccccc1)NC(=O)[C@@H](NC(=O)[C@H](CCCCN)NC(=O)[C@H](C)NC(=O)[C@H](CCC(N)=O)NC(=O)[C@H](CCC(=O)O)NC(=O)[C@H](CCC(=O)O)NC(=O)[C@@H](NC(=O)[C@@H](NC(=O)[C@H](CO)NC(=O)[C@H](CCC(N)=O)NC(=O)[C@H](C)NC(=O)[C@H](C)NC(=O)[C@@H](NC(=O)[C@@H](NC(=O)[C@H](C)NC(=O)[C@@H](NC(=O)[C@H](CC(C)C)NC(=O)[C@@H](N)CO)C(C)C)C(C)C)[C@@H](C)O)[C@@H](C)O)[C@@H](C)CC)[C@@H](C)O)C(=O)NCCCCCC(=O)N[C@@H](Cc1c[nH]c2ccccc12)C(N)=O [BP19] (H-SLVAVTAAQSTIEEQAKTFLDKFI[Ahx]W-NH2; N-terminus assumed) | – | 2.08 ± 0.38 µM | able to outcompete the natural ACE2 at lower than equimolar concentrations; also recorded: outcompeted 13.48 μM of ACE2 for binding to the CoV2-RBD | dose-responsive; also recorded: inhibitory of the Spike-ACE2 interaction in vitro
